Data from ChEMBL document CHEMBL1131527, “Estradiol-mimetic probes. Preparation of 17 alpha-(6-aminohexynyl)estradiol biotin, fluorescein and acridinium conjugates” (Bioorg Med Chem Lett, 1998).

Assay: Equilibrium dissociation constant of the compound
Type: ADME

Kd [nM]	Structure (SMILES)
198	Cc1ccc(S(=O)(=O)N(CCCC(=O)NCCCCC#C[C@]2(O)CC[C@H]3[C@@H]4CCc5cc(O)ccc5[C@H]4CC[C@@]32C)C(=O)c2c3ccccc3[n+](CCCS(=O)(=O)[O-])c3ccccc23)cc1
141	C[C@]12CC[C@@H]3c4ccc(O)cc4CC[C@H]3[C@@H]1CC[C@@]2(O)C#CCCCCNC(=O)CCCCC1SC[C@@H]2NC(=O)N[C@H]12 (stereo partly drawn)
97.3	C[C@]12CC[C@@H]3c4ccc(O)cc4CC[C@H]3[C@@H]1CC[C@@]2(O)C#CCCCCNC(=O)c1ccc2c(c1)C(=O)OC21c2ccc(O)cc2Oc2cc(O)ccc21
